Data on three compounds can be found in patent US7528135B2, “Pyridine derivatives as H3 antagonists” (Hoffmann-La Roche Inc., priority 2004, dated 2009).

pKi: −log10 of the molar value.

The experiment addresses T1, histamine 3 receptor (H3R) (Homo sapiens, UniProt Q9Y5N1).
T1 construct: expressed in transfected cells; host or cells: CHO cells (HR3-CHO cell line), membrane preparation
As to the kind of experiment: Binding assay with 3H-(R)α-methylhistamine (competition binding, human HR3-CHO membranes). Conditions: competition against 3H(R)α-Methylhistamine (1 nM = Kd), membrane of the human HR3-CHO cell line; Ki calculated from IC50 by Cheng-Prusoff. On the procedure: Binding Assay with ^3H-(R)α-methylhistamine
Saturation binding experiments were performed using HR3-CHO membranes prepared as described in Takahashi, K, Tokita, S., Kotani, H. (2003) J. Pharmacol. Exp. Therapeutics 307, 213-218.
An appropriate amount of membrane (60 to 80 μg protein/well) was incubated with increasing concentrations of ^3H(R)α-Methylhistamine di-hydrochloride (0.10 to 10 nM). Non specific binding was determined using a 200 fold excess of cold (R)α-Methylhistamine dihydrobromide (500 nM final concentration). The incubation was carried out at room temperature (in deep-well plates shaking for three hours). The final volume in each well was 250 μl. The incubation was followed by rapid filtration on GF/B filters (pre-soaked with 100 μl of 0.5% PEI in Tris 50 mM shaking at 200 rpm for two hours). The filtration was made using a cell-harvester and the filter plates were then washed five times with ice cold washing buffer containing 0.5 M NaCl. After harvesting, the plates were dried at 55° C. for 60 min, then we added scintillation fluid (Microscint 40, 40 microl in each well) and the amount of radioactivity on the filter was determined in Packard top-counter after shaking the plates for two hours at 200 rpm at room temperature.
Binding Buffer: 50 mM Tris-HCl pH 7.4 and 5 mM MgCl2x6H2O pH 7.4. Washing Buffer: 50 mM Tris-HCl pH 7.4 and 5 mM MgCl2x6H2O and 0.5 M NaCl pH 7.4.
Indirect measurement of affinity of H3R inverse agonists: twelve increasing concentrations (ranging from 10 μM to 0.3 nM) of the selected compounds were always tested in competition binding experiments using membrane of the human HR3-CHO cell line. An appropriate amount of protein, e.g. approximately 500 cpm binding of RAMH at Kd, were incubated for 1 hour at room temperature in 250 μl final volume in 96-well plates in presence of ^3H(R)α-Methylhistamine (1 nM final concentration=Kd). […]
All compounds were tested at a single concentration in duplicates. […] Ki's were calculated from IC50 based on Cheng-Prusoff equation (Cheng, Y, Prusoff, W H (1973) Biochem Pharmacol 22, 3099-3108).

T1 sequence (Q9Y5N1 whole entry): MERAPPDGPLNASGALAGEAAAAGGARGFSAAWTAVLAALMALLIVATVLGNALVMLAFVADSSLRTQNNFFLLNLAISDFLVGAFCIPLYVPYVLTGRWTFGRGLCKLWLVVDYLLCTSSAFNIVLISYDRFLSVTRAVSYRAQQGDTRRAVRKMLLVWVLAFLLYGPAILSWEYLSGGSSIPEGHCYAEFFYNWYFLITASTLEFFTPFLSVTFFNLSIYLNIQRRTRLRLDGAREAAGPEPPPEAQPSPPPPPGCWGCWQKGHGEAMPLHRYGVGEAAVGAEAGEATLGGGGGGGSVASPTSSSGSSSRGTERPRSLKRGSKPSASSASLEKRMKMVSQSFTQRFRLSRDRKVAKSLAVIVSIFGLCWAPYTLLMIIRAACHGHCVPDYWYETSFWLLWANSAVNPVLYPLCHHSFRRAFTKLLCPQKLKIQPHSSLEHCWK

With `CCN1CCN(c2ccc(NC(=O)NCc3ccccc3)cn2)CC1` [Example 3, 1-benzyl-3-[6-(4-ethyl-piperazin-1-yl)-pyridin-3-yl]-urea], the pKi was 7.41. The figure for `CN(C)S(=O)(=O)Nc1ccc(N2CCN(C3CCCC3)CC2)nc1` [Example 34, N-[6-(4-cyclopentyl-piperazin-1-yl)-pyridin-3-yl]-diemethylaminosulfonamide] is 7.09; for `COc1ccc(CC(=O)Nc2ccc(N3CCN(C4CCCC4)CC3)nc2)cc1OC` [Example 53, N-[6-(4-cyclopentyl-piperazin-1-yl)-pyridin-3-yl]-2-(3,4-dimethoxy-phenyl)-acetamide] it is 7.40.
